# Reference: US20230047788A1, “COMPOSITIONS COMPRISING 5-CHOLESTEN-3, 25-DIOL, 3-SULFATE (25HC3S) OR PHARMACEUTICALLY ACCEPTABLE SALT THEREOF AND AT LEAST ONE CYCLIC OLIGOSACCHARIDE” (Virginia Commonwealth University, priority 2016, published 2023)
# “And” between values parts separate entries of the source, which are not always exact repeats. Equal values may be shown once.
# Test: Infusion compatibility of constituted 25HC3S solution with 5% dextrose, 0.9% sodium chloride and two infusion sets
# Type: physicochemical
# Settings: for % Remaining after infusion set / Concentration after infusion set / Osmolality after infusion set / pH after infusion set: 0.9% NaCl
# Experimental: After constitution with Vehicle, the 30 mg/mL 25HC3S product was diluted into 100 mL of 5% dextrose injection, USP or 0.9% sodium chloride injection, USP, and was administered to subjects as an IV infusion ranging from a 30 mg to 150 mg 25HC3S dose. This was accomplished by adding 1.0 mL (for the 30 mg dose) or 5.0 mL (for the 150 mg dose), or any volume in between, of the 30 mg/mL 25HC3S product into a 100 mL dextrose or sodium chloride infusion bag. The entire admixture content in the infusion bag was infused into the subject over approximately 2 hours at a rate of 50 mL/hour.
# A physical and chemical compatibility study was conducted at a 30 mg, 48 mg and 300 mg 25HC3S dose in 5% dextrose and 0.9% sodium chloride infusion bags. Descriptions of the two kinds of infusion sets tested with 25HC3S product diluted in 5% dextrose and 0.9% sodium chloride are listed in Table 15. The tubing in catalog number 2H8480 infusion set was composed of polyvinylchloride (PVC), while the tubing in catalog number 2C8858 was polyethylene lined except for a short pump segment (approximately 12 inches) which was composed of PVC.
# 25HC3S for Injection and Vehicle for 25HC3S for Injection, that had been stored at 2-8° C. for approximately 16 months, were used for the compatibility study. After constitution, 30 mg (1.0 mL of constituted product), 48 mg (1.6 mL of constituted product) or 300 mg (10 mL of constituted product) were added to 100 mL infusion bags of 5% dextrose and 0.9% sodium chloride, mixed thoroughly, and stored for 24 hours at room temperature and at 2-8° C. […] Taking into consideration the overfill per infusion bag and the additional volume introduced by adding the constituted 25HC3S product to each bag, the expected concentrations of 25HC3S were 0.28 mg/mL, 0.44 mg/mL, and 2.56 mg/mL in the infusion bags. Two kinds of infusion sets were then attached to the drug containing infusion bags, and the entire contents were eluted through the infusion sets at approximately 50 mL/hour at room temperature. Samples were collected from the 25HC3S prepared infusion bags at T=0 and at 24 hours, and from the total eluent passed through the infusion sets, and tested for 25HC3S concentration using HPLC. Solution visual appearance, osmolality (using method USP<785>), and pH (using method USP<791>) were also measured on the collected samples.
# [1] = ~0.28 mg/mL, 24 h 2-8°C then Baxter 2C8858
# [2] = ~0.28 mg/mL, 24 h 2-8°C then Baxter 2H8480
# [3] = ~0.28 mg/mL, 24 h RT then Baxter 2C8858
# [4] = ~0.28 mg/mL, 24 h RT then Baxter 2H8480
# [5] = ~0.44 mg/mL, 24 h 2-8°C then Baxter 2C8858
# [6] = ~0.44 mg/mL, 24 h 2-8°C then Baxter 2H8480
# [7] = ~0.44 mg/mL, 24 h RT then Baxter 2C8858
# [8] = ~0.44 mg/mL, 24 h RT then Baxter 2H8480
# [9] = ~2.56 mg/mL, 24 h 2-8°C then Baxter 2C8858
# [10] = ~2.56 mg/mL, 24 h 2-8°C then Baxter 2H8480
# [11] = ~2.56 mg/mL, 24 h RT then Baxter 2C8858
# [12] = ~2.56 mg/mL, 24 h RT then Baxter 2H8480
# [13] = 0.9% sodium chloride bag, ~0.28 mg/mL, 24 Hours at 2-8°C
# [14] = 0.9% sodium chloride bag, ~0.28 mg/mL, 24 Hours at RT
# [15] = 0.9% sodium chloride bag, ~0.28 mg/mL, T = 0
# [16] = 0.9% sodium chloride bag, ~0.44 mg/mL, 24 Hours at 2-8°C
# [17] = 0.9% sodium chloride bag, ~0.44 mg/mL, 24 Hours at RT
# [18] = 0.9% sodium chloride bag, ~0.44 mg/mL, T = 0
# [19] = 0.9% sodium chloride bag, ~2.56 mg/mL, 24 Hours at 2-8°C
# [20] = 0.9% sodium chloride bag, ~2.56 mg/mL, 24 Hours at RT
# [21] = 0.9% sodium chloride bag, ~2.56 mg/mL, T = 0
smiles,measurement,setting,value
"C[C@H](CCCC(C)(C)O)[C@H]1CC[C@H]2[C@@H]3CC=C4C[C@@H](OS(=O)(=O)[O-])CC[C@]4(C)[C@H]3CC[C@]12C.[Na+] [25HC3S, 5-cholesten-3, 25-diol, 3-sulfate]",% Remaining after infusion set,[1],(100.0%)
same,Concentration after infusion set,[1],275 µg/mL
same,Osmolality after infusion set,[1],276 mmol/kg
same,pH after infusion set,[1],5.78
same,% Remaining after infusion set,[2],(100.4%)
same,Concentration after infusion set,[2],275 µg/mL
same,Osmolality after infusion set,[2],277 mmol/kg
same,pH after infusion set,[2],5.81
same,% Remaining after infusion set,[3],(100.0%)
same,Concentration after infusion set,[3],274 µg/mL
same,Osmolality after infusion set,[3],276 mmol/kg
same,pH after infusion set,[3],5.83
same,% Remaining after infusion set,[4],(99.6%)
same,Concentration after infusion set,[4],272 µg/mL
same,Osmolality after infusion set,[4],276 mmol/kg
same,pH after infusion set,[4],5.78
same,% Remaining after infusion set,[5],(100.2%)
same,Concentration after infusion set,[5],426 µg/mL
same,Osmolality after infusion set,[5],281 mmol/kg
same,pH after infusion set,[5],7.16
same,% Remaining after infusion set,[6],(100.0%)
same,Concentration after infusion set,[6],434 µg/mL
same,Osmolality after infusion set,[6],282 mmol/kg
same,pH after infusion set,[6],7.13
same,% Remaining after infusion set,[7],(100.0%)
same,Concentration after infusion set,[7],424 µg/mL
same,Osmolality after infusion set,[7],288 mmol/kg
same,pH after infusion set,[7],7.20
same,% Remaining after infusion set,[8],(99.8%)
same,Concentration after infusion set,[8],433 µg/mL
same,Osmolality after infusion set,[8],286 mmol/kg
same,pH after infusion set,[8],7.09
same,% Remaining after infusion set,[9],(99.8%)
same,Concentration after infusion set,[9],2520 µg/mL
same,Osmolality after infusion set,[9],283 mmol/kg
same,pH after infusion set,[9],5.70
same,% Remaining after infusion set,[10],(100.0%)
same,Concentration after infusion set,[10],2530 µg/mL
same,Osmolality after infusion set,[10],283 mmol/kg
same,pH after infusion set,[10],5.72
same,% Remaining after infusion set,[11],(99.6%)
same,Concentration after infusion set,[11],2520 µg/mL
same,Osmolality after infusion set,[11],279 mmol/kg
same,pH after infusion set,[11],5.83
same,% Remaining after infusion set,[12],(100.4%)
same,Concentration after infusion set,[12],2460 µg/mL
same,Osmolality after infusion set,[12],283 mmol/kg
same,pH after infusion set,[12],5.81
same,Concentration,[13],275 µg/mL
same,Osmolality,[13],276 mmol/kg
same,pH,[13],5.87 and 5.99
same,Concentration,[14],272 µg/mL and 274 µg/mL
same,Osmolality,[14],275 mmol/kg and 277 mmol/kg
same,pH,[14],5.93 and 5.92
same,Osmolality,[15],278 mmol/kg and 277 mmol/kg
same,T = 0 Conc.,[15],0.273 mg/mL and 0.274 mg/mL and 0.275 mg/mL
same,pH,[15],6.39 and 6.43 and 6.45 and 6.40
same,% Remaining Compared to T = 0,[16],(100.0%)
same,Concentration,[16],434 µg/mL and 425 µg/mL
same,Osmolality,[16],281 mmol/kg
same,pH,[16],7.43 and 7.19
same,% Remaining Compared to T = 0,[17],(100.0%)
same,Concentration,[17],434 µg/mL and 424 µg/mL
same,Osmolality,[17],280 mmol/kg
same,pH,[17],7.33 and 7.41
same,Osmolality,[18],277 mmol/kg and 279 mmol/kg and 284 mmol/kg and 280 mmol/kg
same,T = 0 Conc.,[18],0.434 mg/mL and 0.424 mg/mL and 0.425 mg/mL
same,pH,[18],7.30 and 7.43 and 7.21 and 7.44
same,Concentration,[19],2510 µg/mL and 2520 µg/mL
same,Osmolality,[19],283 mmol/kg
same,pH,[19],5.93 and 5.96
same,Concentration,[20],2500 µg/mL and 2525 µg/mL
same,Osmolality,[20],282 mmol/kg
same,pH,[20],6.01 and 5.86
same,Osmolality,[21],282 mmol/kg and 281 mmol/kg
same,T = 0 Conc.,[21],2.450 mg/mL and 2.530 mg/mL and 2.525 mg/mL
same,pH,[21],6.20 and 6.10 and 6.07 and 6.11
same,deviation of concentrations from initial T=0 time point,"0.9% sodium chloride, 24 hours at RT and 2-8°C and after elution through infusion sets",≤ 2.0%
same,Concentration,"5% dextrose bag, ~0.28 mg/mL, 24 Hours at 2-8°C",280 µg/mL
